Assays:
[1] = tested on: production of Interleukin-1 (IL-1); assay: Inhibitory activity on the production of Interleukin-1 (IL-1) in LPS-stimulated human peripheral blood monocyte; format: cell-based; conditions: 48 h; purified human peripheral blood monocyte, LPS 1 μg/10^4 cells, 2 days at 37° C., IL-1β ELISA of supernatant; read-out: IC50 (inhibition of IL-1 production)
Method: Purified human peripheral blood monocyte were stimulated with bacterial lipopolysaccharide (1 μg/10^4 cells) in the absence or presence of appropriately diluted test compound for 2 days at 37° C. in a humidified 5% CO2 atmosphere. Culture supernatants were tested for IL-1 ELISA assay.
Test compound was dissolved in absolute DMSO (dimethyl sulfoxide) to achieve 10 mM stock solutions and was subsequently diluted in serum free RPMI1640.
IL-1 levels were quantified by a commercial ELISA kit (Ohtsuka assay, Japan) using a sandwich technique. The sensitivity levels for the detection of IL-1β were 20 pg/ml.
(§1) The inhibitory concentration that caused a 50% inhibition (IC50) was calculated by regression analysis of the dose-response data.

[2] = tested on: production of tumor necrosis factor (TNF); assay: Inhibitory activity on the production of tumor necrosis factor (TNF) in LPS-stimulated human peripheral blood monocyte; format: cell-based; conditions: 48 h; purified human peripheral blood monocyte, LPS 1 μg/10^4 cells, 2 days at 37° C., TNF ELISA of supernatant; read-out: IC50 (inhibition of TNF production)
Method: Purified human peripheral blood monocyte were stimulated with bacterial lipopolysaccharide (1 μg/10^4 cells) in the absence or presence of appropriately diluted test compound for 2 days at 37° C. in a humidified 5% CO2 atmosphere. Culture supernatants were tested for TNF ELISA assay.
TNF levels were quantified by a commercial ELISA kit (Endogen, Inc. USA) using a sandwich technique. The sensitivity levels for the detection of TNF were 12 pg/ml.
as §1

Row | Compound | IC50 [1] [nM] | IC50 [2] [nM]
1 | CC(C)(C)CN1CCn2nc(-c3ccc(F)cc3)c(-c3ccncc3)c2N1 [Example 16-(5), 7-(4-Fluorophenyl)-2-neopentyl-8-(pyridin-4-yl)-1,2,3,4-tetrahydropyrazolo[5,1-c][1,2,4]triazine] | 92 | 91
2 | Fc1ccc(-c2nn3c(c2-c2ccncc2)NN(C2CCCCC2)CC3)cc1 [Example 18-(2), 2-Cyclohexyl-7-(4-Fluorophenyl)-8-(pyridin-4-yl)-1,2,3,4-tetrahydropyrazolo[5,1-c][1,2,4]triazine] | 88 | 110
